We go through twelve compounds from DBAASP.

Each structure is given as a SMILES string. Converted amounts (≈) assume the structure as drawn. “And” between values parts separate entries of the source, which are not always exact repeats. Identical values can stand only once. Some results are limits rather than exact numbers.

Holding throughout (experiment): ≥ marks a high value that may be exact or a test limit, other limits are often not marked, values filed in µg/mL are converted to µM
Experiment [1] relates to Klebsiella pneumoniae ATCC 13883.
Experiment [2] has as its system Salmonella enterica subsp. enterica serovar Typhimurium ATCC 14028.
The subject of experiment [3] is Escherichia coli DH5alpha.
Experiment [4] relates to Pseudomonas aeruginosa ATCC 27853.
Experiment [5] has as its system Staphylococcus aureus NCTC 8325.
The subject of experiment [6] is Escherichia coli B.
Experiment [7] has as its system Pseudomonas aeruginosa.
Experiment [8] deals with Bacillus subtilis 168.
The test system of experiment [9] is Staphylococcus aureus.
The subject of experiment [10] is Micrococcus luteus.
Experiment [11] concerns Pseudomonas aeruginosa ATCC 10145.
The test system of experiment [12] is Acinetobacter baumannii.
For experiment [13], the system named is Escherichia coli ATCC 25922.
Experiment [14] deals with Escherichia coli.
Experiment [15] has as its system Acinetobacter baumannii ATCC 19606.
The subject of experiment [16] is Staphylococcus aureus ATCC 25923.
Experiment [17] has as its system Klebsiella pneumoniae.
The subject of experiment [18] is Escherichia coli ATCC 11775.
The test system of experiment [19] is Candida albicans ATCC 2002.
Experiment [20] relates to Pseudomonas aeruginosa CMCCB 10104.
Experiment [21] concerns Staphylococcus aureus ATCC 29213.

The term MIC denotes the lowest concentration that inhibits growth of the organism. With `CC[C@H](C)[C@H](NC(=O)[C@H](Cc1cnc[nH]1)NC(=O)[C@H](C)NC(=O)[C@H](CCSC)NC(=O)[C@H](CC(N)=O)NC(=O)[C@H](CCCCN)NC(=O)[C@H](CCCCN)NC(=O)[C@@H](NC(=O)[C@@H](NC(=O)[C@H](CCCCN)NC(=O)[C@H](C)NC(=O)[C@H](Cc1ccccc1)NC(=O)[C@H](CC(C)C)NC(=O)[C@H](CCCCN)NC(=O)[C@@H]1CCCN1C(=O)[C@H](CC(C)C)NC(=O)[C@@H](N)Cc1ccccc1)[C@@H](C)CC)[C@@H](C)O)C(=O)N[C@@H](CCCN=C(N)N)C(=O)N[C@@H](CS)C(=O)O` [FLPKLFAKITKKNMAHIRC], the MIC in [1] was 12 µM and 10 µM; in experiment [2] it was 15 µM (≈ 33.9 µg/mL); in experiment [3], 17 µM and 12 µM; in experiment [4], 15 µM (≈ 33.9 µg/mL).
In the case of `CC[C@H](C)[C@H](NC(=O)[C@H](CC(C)C)NC(=O)CNC(=O)[C@H](CO)NC(=O)[C@H](CC(C)C)NC(=O)[C@@H](NC(=O)[C@H](CCCCN)NC(=O)CNC(=O)[C@@H](NC(=O)[C@H](CC(C)C)NC(=O)[C@@H]1CCCN1C(=O)[C@H](CC(C)C)NC(=O)[C@@H](N)Cc1ccccc1)C(C)C)[C@@H](C)CC)C(N)=O` [FLPLVGKILSGLI], in [5], the MIC is at least 70 µM.
Regarding `CC[C@H](C)[C@H](NC(=O)[C@H](Cc1cnc[nH]1)NC(=O)[C@H](CCCCN)NC(=O)[C@H](Cc1c[nH]c2ccccc12)NC(=O)[C@H](CC(C)C)NC(=O)[C@H](CO)NC(=O)[C@H](CCSC)NC(=O)[C@H](Cc1c[nH]c2ccccc12)NC(=O)[C@H](CCCCN)NC(=O)CN)C(=O)N[C@@H](CC(C)C)C(=O)N[C@@H](CCCCN)C(N)=O` [GKWMSLWKHILK], the MIC in experiment [6] is 8 µM (≈ 12.2 µg/mL); in experiment [7], 32.5 µM (≈ 49.6 µg/mL); in experiment [8] it was 1.4 µM (≈ 2.14 µg/mL); in experiment [9], 27 µM (≈ 41.2 µg/mL).
`CC(C)C[C@H](NC(=O)CNC(=O)[C@H](CC(C)C)NC(=O)CNC(=O)[C@H](CC(N)=O)NC(=O)[C@H](CC(C)C)NC(=O)[C@H](CC(C)C)NC(=O)[C@H](CC(N)=O)NC(=O)CNC(=O)[C@H](CC(C)C)NC(=O)[C@@H](NC(=O)CNC(=O)[C@H](CC(C)C)NC(=O)[C@H](CC(C)C)NC(=O)CN)[C@@H](C)O)C(N)=O` [GLLGTLGNLLNGLGL] yielded an MIC in [10] of at least 35.1 µM.
Take `CC[C@H](C)[C@H](NC(=O)[C@H](CC(C)C)NC(=O)[C@H](Cc1cnc[nH]1)NC(=O)CNC(=O)[C@H](CC(C)C)NC(=O)[C@@H](NC(=O)[C@H](CCCCN)NC(=O)[C@H](CO)NC(=O)[C@H](Cc1c[nH]c2ccccc12)NC(=O)[C@H](CCSC)NC(=O)CN)[C@@H](C)CC)C(=O)N[C@@H](CCCCN)C(N)=O` [GMWSKILGHLIK]: the MIC in experiment [6] is 7.2 µM (≈ 9.95 µg/mL); in experiment [7], 65 µM (≈ 89.8 µg/mL); in experiment [8] it was 1.3 µM (≈ 1.8 µg/mL); in experiment [9], 15.8 µM (≈ 21.8 µg/mL).
As to `C[C@H](NC(=O)[C@H](C)NC(=O)[C@H](CCCCN)NC(=O)[C@H](CCCCN)NC(=O)[C@H](C)NC(=O)[C@H](C)NC(=O)[C@H](CCCCN)NC(=O)[C@H](CCCCN)NC(=O)[C@H](C)NC(=O)[C@H](Cc1ccccc1)NC(=O)[C@H](CCCCN)NC(=O)[C@H](CCCCN)NC(=O)[C@H](C)NC(=O)[C@H](Cc1ccccc1)NC(=O)[C@@H](N)CCCCN)C(=O)N[C@@H](CCCCN)C(=O)O` [KFAKKFAKKAAKKAAK], the MIC in [11] is at least 142 µM.
Consider `CC[C@H](C)[C@H](NC(=O)[C@@H](N)CCCCN)C(=O)NCC(=O)N[C@@H](CCCCN)C(=O)N[C@@H](C)C(=O)N[C@@H](CC(C)C)C(=O)NCC(=O)N[C@@H](CCCCN)C(=O)N[C@@H](C)C(=O)N[C@@H](CC(C)C)C(=O)N[C@@H](CCCCN)C(=O)N[C@@H](C)C(=O)N[C@@H](CC(C)C)C(=O)NCC(=O)N[C@@H](CCCCN)C(=O)N[C@@H](C)C(=O)N[C@@H](CC(C)C)C(=O)NCC(=O)N[C@@H](CCCCN)C(=O)N[C@@H](C)C(N)=O` [KIGKALGKALKALGKALGKA], for which the minimum inhibitory concentration (MIC) in experiment [12] is at least 45.3 µM; in [13] it was 8 µM (≈ 15.5 µg/mL); in experiment [7], 22.6 µM (≈ 43.8 µg/mL); in experiment [14], 45.3 µM (≈ 87.6 µg/mL); in [1], 16 µM (≈ 31 µg/mL); in experiment [9], 16 µM (≈ 31 µg/mL). The MIC in experiment [15] was 2 µM (≈ 3.87 µg/mL); in experiment [16], 16 µM and 22.6 µM; in experiment [17], 16 µM (≈ 31 µg/mL); in experiment [4], 8 µM (≈ 15.5 µg/mL).
Consider `NCCCC[C@H](NC(=O)[C@H](Cc1c[nH]c2ccccc12)NC(=O)[C@H](CCC(N)=O)NC(=O)[C@H](Cc1c[nH]c2ccccc12)NC(=O)[C@H](CCCCN)NC(=O)[C@H](Cc1c[nH]c2ccccc12)NC(=O)[C@H](CCC(N)=O)NC(=O)[C@H](Cc1c[nH]c2ccccc12)NC(=O)[C@@H](N)CCCCN)C(=O)O` [KWQWKWQWK], for which the MIC is 36 µM (≈ 50.5 µg/mL) in [13], at least 36 µM in experiment [18], 143 µM (≈ 201 µg/mL) in experiment [16] and 143 µM (≈ 201 µg/mL) in experiment [4].
Regarding `CC[C@H](C)[C@H](NC(=O)[C@H](CCCCN)NC(=O)CNC(=O)[C@H](CC(C)C)NC(=O)[C@@H](NC(=O)[C@H](CCCCN)NC(=O)[C@H](CCCCN)NC(=O)[C@H](Cc1c[nH]c2ccccc12)NC(=O)[C@@H](NC(=O)[C@@H](N)CC(N)=O)C(C)C)C(C)C)C(=O)N[C@H](C(=O)N[C@@H](CCCCN)C(=O)N[C@H](C(=O)N[C@@H](C)C(=O)N[C@@H](CCCCN)C(N)=O)C(C)C)[C@@H](C)CC` [NVWKKVLGKIIKVAK], the MIC in experiment [6] was 2.5 µM (≈ 4.31 µg/mL); in experiment [7], 22.7 µM (≈ 39.1 µg/mL); in [8], 1.3 µM (≈ 2.24 µg/mL); in experiment [9] it was 71.6 µM (≈ 123 µg/mL).
Consider `CC[C@H](C)[C@H](NC(=O)[C@H](C)NC(=O)[C@H](CC(C)C)NC(=O)[C@H](CCC(=O)O)NC(=O)[C@H](CCCCN)NC(=O)[C@H](Cc1ccccc1)NC(=O)[C@@H](NC(=O)[C@H](CO)NC(=O)[C@H](CC(C)C)NC(=O)[C@H](Cc1ccccc1)NC(=O)[C@@H](N)CO)[C@@H](C)O)C(=O)N[C@@H](CC(N)=O)C(=O)N[C@@H](C)C(=O)N[C@@H](C)C(=O)N[C@@H](CCCCN)C(=O)N[C@@H](CC(N)=O)C(=O)N[C@@H](C)C(=O)NCC(=O)N[C@@H](CCC(N)=O)C(=O)N[C@@H](CO)C(=O)N[C@H](C(=O)N[C@@H](CC(C)C)C(=O)N[C@@H](Cc1cnc[nH]1)C(=O)N[C@H](C(=O)N[C@@H](CC(C)C)C(=O)N[C@@H](CO)C(=O)N[C@H]1CSSC[C@@H](C(=O)O)NC(=O)[C@H]([C@@H](C)O)NC(=O)[C@H](CCCCN)NC(=O)[C@H](CC(=O)O)NC(=O)[C@H](CC(C)C)NC(=O)[C@H](CCCCN)NC1=O)[C@@H](C)O)[C@@H](C)CC` [SFLSTFKELAINAAKNAGQSILHTLSCKLDKTC], for which the MIC in [19] worked out at 1.44 µM (≈ 5.1 µg/mL); in [20], 5.74 µM (≈ 20.4 µg/mL); in [13], 5.74 µM (≈ 20.4 µg/mL); in experiment [16], 2.87 µM (≈ 10.2 µg/mL).
Take `CC[C@H](C)[C@H](NC(=O)[C@H](CC(C)C)NC(=O)[C@H](CC(C)C)NC(=O)[C@H](CC(=O)O)NC(=O)[C@H](CCCCN)NC(=O)[C@@H](NC(=O)[C@@H](NC(=O)CNC(=O)[C@H](CC(C)C)NC(=O)[C@@H](NC(=O)[C@@H](N)CO)C(C)C)[C@@H](C)O)C(C)C)C(=O)NCC(=O)N[C@@H](C)C(=O)NCC(=O)N[C@@H](CCCCN)C(=O)N[C@@H](CO)C(=O)N[C@@H](C)C(=O)N[C@@H](C)C(=O)N[C@@H](CCC(N)=O)C(=O)N[C@@H](CO)C(=O)N[C@H](C(=O)N[C@@H](CC(C)C)C(=O)N[C@H](C(=O)N[C@@H](C)C(=O)N[C@@H](CC(C)C)C(=O)N[C@@H](CO)C(=O)N[C@H]1CSSC[C@@H](C(=O)O)NC(=O)[C@H](CO)NC(=O)[C@H](CC(N)=O)NC(=O)[C@H](CO)NC(=O)[C@H](CC(C)C)NC(=O)[C@H](CCCCN)NC1=O)[C@@H](C)O)C(C)C` [SVLGTVKDLLIGAGKSAAQSVLTALSCKLSNSC]: the MIC in [19] was 3.4 µM (≈ 11 µg/mL); in experiment [20] it was 6.8 µM (≈ 22 µg/mL); in [13], 1.7 µM (≈ 5.5 µg/mL); in experiment [16] it was 3.4 µM (≈ 11 µg/mL).
As for `CC[C@H](C)[C@H](NC(=O)[C@H](C)NC(=O)[C@@H](N)C(C)C)C(=O)N[C@@H](C)C(=O)N[C@@H](CC(C)C)C(=O)N[C@@H](CCCCN)C(=O)N[C@@H](C)C(=O)N[C@@H](C)C(=O)N[C@@H](Cc1cnc[nH]1)C(=O)N[C@@H](Cc1ccc(O)cc1)C(=O)N[C@@H](C)C(=O)N[C@H](C(=O)N[C@@H](Cc1cnc[nH]1)C(=O)N[C@@H](CCCCN)C(=O)N[C@@H](CCC(=O)O)C(=O)O)[C@@H](C)O` [VAIALKAAHYATHKE], the MIC in experiment [1] was at least 78.9 µM; in experiment [21], 39.4 µM (≈ 64 µg/mL).
